Reference: PubChem BioAssay (NCI)
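Method: 48-hour compound exposure of cells in 96-well plates, five concentrations, linear interpolation of endpoints. GI50 marks 50% less growth. TGI is the concentration that stops growth completely.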

Columns and labels:
Test in all cases: NCI tumour cell line growth inhibition, 48 h
[1] = system: PC-3 prostate
[2] = system: TK-10 renal
[3] = system: SK-MEL-2 melanoma
[4] = system: IGROV1 ovarian
[5] = system: SNB-75 CNS
[6] = system: SR leukemia
[7] = system: SW-620 colon
[8] = system: OVCAR-5 ovarian
[9] = system: DU-145 prostate
[10] = system: MDA-MB-231 breast
[11] = system: HCT-116 colon
[12] = system: KM12 colon
[13] = system: CAKI-1 renal
[14] = system: U251 CNS
[15] = system: NCI-H226 lung
[16] = system: SF-268 CNS
[17] = system: SNB-19 CNS
[18] = system: HOP-62 NSCLC
[19] = system: SK-MEL-5 melanoma
[20] = system: HOP-92 NSCLC
[21] = system: HCT-15 colon
[22] = system: LOX IMVI melanoma
[23] = system: UACC-62 melanoma
[24] = system: SK-OV-3 ovarian
[25] = system: UACC-257 melanoma
[26] = system: BT-549 breast
[27] = system: MOLT-4 leukemia
[28] = system: NCI/ADR-RES ovarian
[29] = system: RPMI-8226 leukemia
[30] = system: SF-295 CNS
[31] = system: NCI-H23 lung
[32] = system: SN12C renal
[33] = system: UO-31 renal
[34] = system: NCI-H522 lung
[35] = system: A498 renal
[36] = system: HL-60(TB) leukemia
[37] = system: COLO 205 colon
[38] = system: OVCAR-4 ovarian
[39] = system: MDA-MB-435
[40] = system: MCF7 breast
[41] = system: MALME-3M melanoma
[42] = system: T-47D breast
[43] = system: OVCAR-8 ovarian
[44] = system: SK-MEL-28 melanoma
[45] = system: CCRF-CEM leukemia
[46] = system: A549 NSCLC
[47] = system: M14 melanoma
[48] = system: 786-0 renal
[49] = system: K-562 leukemia
[50] = system: ACHN renal
[51] = system: NCI-H460 lung
[52] = system: OVCAR-3 ovarian
[53] = system: HCC-2998 colon
[54] = system: HS 578T breast
[55] = system: EKVX NSCLC
[56] = system: HT29 colon
[57] = system: SF-539 CNS
[58] = system: RXF 393 renal

**Q.** What does the source list for CCOC(=O)c1c(C(F)(F)F)n([O-])c2ccc(OC)cc2[n+]1=O?
**A.** GI50 [1]: 2.99 µM; TGI [1]: > 100 µM; GI50 [2]: 9.68 µM; TGI [2]: > 100 µM; GI50 [3]: 19.2 µM; TGI [3]: 54.4 µM; GI50 [4]: 4.69 µM; TGI [4]: 26.5 µM; GI50 [5]: 3.55 µM; TGI [5]: 39.8 µM; GI50 [6]: 2.37 µM; TGI [6]: 6.74 µM; GI50 [7]: 5.79 µM; TGI [7]: > 100 µM; GI50 [8]: 5.49 µM; TGI [8]: 48.6 µM; GI50 [9]: 5.15 µM; TGI [9]: > 100 µM; GI50 [10]: 5.38 µM; TGI [10]: 51.6 µM; GI50 [11]: 4.13 µM; TGI [11]: 18.3 µM; GI50 [12]: 7.99 µM; TGI [12]: > 100 µM; GI50 [13]: 3.46 µM; TGI [13]: 19.9 µM; GI50 [14]: 4.31 µM; TGI [14]: > 100 µM; GI50 [15]: 4.07 µM; TGI [15]: 36 µM; GI50 [16]: 4.65 µM; TGI [16]: 72.5 µM; GI50 [17]: 3.77 µM; TGI [17]: 56.6 µM; GI50 [18]: 3.89 µM; TGI [18]: 21.9 µM; GI50 [19]: 1.7 µM; TGI [19]: 3.31 µM; GI50 [20]: 2.51 µM; TGI [20]: 11.9 µM; GI50 [21]: 3.88 µM; TGI [21]: > 100 µM; GI50 [22]: 5.22 µM; TGI [22]: 25.4 µM; GI50 [23]: 2.69 µM; TGI [23]: 12 µM; GI50 [24]: 3.71 µM; TGI [24]: 20.3 µM; GI50 [25]: 3.69 µM; TGI [25]: > 100 µM; GI50 [26]: 4.29 µM; TGI [26]: 33.7 µM; GI50 [27]: 4 µM; TGI [27]: 17.5 µM; GI50 [28]: 3.72 µM; TGI [28]: 40.7 µM; GI50 [29]: 3.49 µM; TGI [29]: 33.7 µM; GI50 [30]: 2.61 µM; TGI [30]: 8.79 µM; GI50 [31]: 3.68 µM; TGI [31]: 26.6 µM; GI50 [32]: 2.84 µM; TGI [32]: 22.2 µM; GI50 [33]: 6.68 µM; TGI [33]: > 100 µM; GI50 [34]: 6.52 µM; TGI [34]: 31 µM; GI50 [35]: 11.3 µM; TGI [35]: 33.7 µM; GI50 [36]: 3.01 µM; TGI [36]: 9.63 µM; GI50 [37]: 4.13 µM; TGI [37]: 16.2 µM; GI50 [38]: 5.39 µM; TGI [38]: > 100 µM; GI50 [39]: 4.47 µM; TGI [39]: 76 µM; GI50 [40]: 4.38 µM; TGI [40]: 65 µM; GI50 [41]: 2.83 µM; TGI [41]: 30.9 µM; GI50 [42]: 2.6 µM; TGI [42]: 8.69 µM; GI50 [43]: 5.12 µM; TGI [43]: > 100 µM; GI50 [44]: 20.3 µM; TGI [44]: > 100 µM; GI50 [45]: 4.3 µM; TGI [45]: 41.7 µM; GI50 [46]: 8.57 µM; TGI [46]: > 100 µM; GI50 [47]: 3.75 µM; TGI [47]: 24.6 µM; GI50 [48]: 6.39 µM; TGI [48]: 49.5 µM; GI50 [49]: 3.76 µM; TGI [49]: 24.9 µM; GI50 [50]: 4.09 µM; TGI [50]: 40.2 µM; GI50 [51]: 3.8 µM; TGI [51]: 15.7 µM; GI50 [52]: 4.31 µM; TGI [52]: 44.8 µM; GI50 [53]: 4.77 µM; TGI [53]: 35.1 µM; GI50 [54]: 4.07 µM; TGI [54]: 46.2 µM; GI50 [55]: 3.67 µM; TGI [55]: 60.5 µM; GI50 [56]: 7.89 µM; TGI [56]: > 100 µM; GI50 [57]: 7.97 µM; TGI [57]: 27 µM; GI50 [58]: 23.8 µM; TGI [58]: > 100 µM
